Source: patent US10543298B2, “Salts of tetracyclines” (Hovione Scientia Limited, priority 2015, dated 2020)
Where a name gives a salt, the structure may show the parent alone. Read-outs that look alike come from different tables or passages of the source.

Key:
[1] = Solubility in buffers at pH 1.0, 1.2, 4.5, 6.8 and 7.5; format: physicochemical; conditions: for Solubility pH = 1.0 (class) / Solubility pH = 1.0 (volume of solvent required for dissolution per gram of solute): buffer pH 1.0, KCl 0.2 M / HCl 0.2 M; for Solubility pH = 1.2 (class) / Solubility pH = 1.2 (volume of solvent required for dissolution per gram of solute): buffer pH 1.2, KCl 0.2 M / HCl 0.2 M; for Solubility pH = 4.5 (class) / Solubility pH = 4.5 (volume of solvent required for dissolution per gram of solute): buffer pH 4.5, potassium biphthalate 0.2 M / HCl 0.2 M; for Solubility pH = 6.8 (class) / Solubility pH = 6.8 (volume of solvent required for dissolution per gram of solute): buffer pH 6.8, monobasic potassium phosphate 0.2 M / NaOH 0.2 M; for Solubility pH = 7.5 (class) / Solubility pH = 7.5 (volume of solvent required for dissolution per gram of solute): buffer pH 7.5, monobasic potassium phosphate 0.2 M / NaOH 0.2 M
Method: The buffers at pH 1.0 and 1.2 were prepared with aqueous solutions of potassium chloride 0.2M and hydrochloric acid 0.2 M, the buffers at pH 6.8 and 7.5 were prepared with aqueous solutions of monobasic potassium phosphate 0.2 M and sodium hydroxide 0.2 M and the buffer at pH 4.5 with aqueous solutions of potassium biphthalate 0.2 M and hydrochloric acid 0.2 M, according to pharmacopoeia USP31.
The statement freely soluble means that the volume of solvent (required for dissolution) in ml per gram of solute is of from 1 to 10. The statement soluble means that the volume of solvent (required for dissolution) in ml per gram of solute is of from […]. The statement sparingly soluble means that the volume of solvent (required for dissolution) in ml per gram of solute is of from 30 to 100. The statement slightly soluble means that the volume of solvent (required for dissolution) in ml per gram of solute is of from 100 to 1000. The statement very slightly soluble means that the volume of solvent (required for dissolution) in ml per gram of solute is from 1000 to 10 000.

[2] = Color classification according to the Munsell color system; format: physicochemical; conditions: for Munsell Classification: Munsell color system
Source text: The table below presents the color classification of the doxycycline salts according to the Munsell color system.

[3] = pH of aqueous solutions of the salts; conditions: for pH: aqueous solution, concentration approximately 10^-3 M
[4] = background statement on the acidic salt; cited from earlier work

Solubility pH = 1.0 (volume of solvent required for dissolution per gram of solute) [1] [ml/g]	Solubility pH = 1.2 (volume of solvent required for dissolution per gram of solute) [1] [ml/g]	Solubility pH = 4.5 (volume of solvent required for dissolution per gram of solute) [1] [ml/g]	Solubility pH = 6.8 (volume of solvent required for dissolution per gram of solute) [1] [ml/g]	Solubility pH = 7.5 (volume of solvent required for dissolution per gram of solute) [1] [ml/g]	Color Description [2]	Munsell Classification [2]	Munsell Classification ([2]; listed as doxycycline hyclate)	pH [3]	Molecule	Solubility pH = 1.0 (class) [1]	Solubility pH = 1.2 (class) [1]	Solubility pH = 4.5 (class) [1]	Solubility pH = 6.8 (class) [1]	Solubility pH = 7.5 (class) [1]	Solubility compared with doxycycline monohydrate ([1]; pH 4.5, pH 6.8 and pH 7.5)	Solubility compared with the hydrochloride / hyclate ([1]; pH 1.0, 1.2, 4.5, 6.8 and 7.5 (all pH values tested))	Solubility compared with doxycycline monohydrate ([1]; pH 1.0 and pH 1.2)	pH compared with the marketed form ([3]; comparison of the values of the pH table)	pH [4]
16	3	53	2	100	Yellowish	10Y 9/3.5 NN	yellowish 10Y		CCO.C[C@H]1c2cccc(O)c2C(=O)C2=C(O)[C@]3(O)C(=O)C(C(N)=O)=C(O)[C@@H](N(C)C)[C@@H]3[C@@H](O)[C@@H]21.C[C@H]1c2cccc(O)c2C(=O)C2=C(O)[C@]3(O)C(=O)C(C(N)=O)=C(O)[C@@H](N(C)C)[C@@H]3[C@@H](O)[C@@H]21.Cl.Cl.O [Doxycycline Hyclate, reference compound]	Soluble (The statement soluble means that the volume of solvent (required for dissolution) in ml per gram of solute is of from 1 to 30)	Freely soluble (The statement freely soluble means that the volume of solvent (required for dissolution) in ml per gram of solute is of from 1 to 10)	Sparingly (The statement sparingly soluble means that the volume of solvent (required for dissolution) in ml per gram of solute is of from 30 to 100)	Freely soluble (The statement freely soluble means that the volume of solvent (required for dissolution) in ml per gram of solute is of from 1 to 10)	Sparingly (The statement sparingly soluble means that the volume of solvent (required for dissolution) in ml per gram of solute is of from 30 to 100)					
13	13	63	83	77	Off-white	9.25/10Y/2.5 NN		3.3	CC1c2cccc(O)c2C(O)=C2C(=O)C3(O)C(O)=C(C(N)=O)C(=O)C(N(C)C)C3C(O)C21.O=C(O)C=CC(=O)O (stereo not shown) [Doxycycline Maleate]	Soluble (The statement soluble means that the volume of solvent (required for dissolution) in ml per gram of solute is of from 1 to 30)	Soluble (The statement soluble means that the volume of solvent (required for dissolution) in ml per gram of solute is of from 1 to 30)	Sparingly (The statement sparingly soluble means that the volume of solvent (required for dissolution) in ml per gram of solute is of from 30 to 100)	Sparingly (The statement sparingly soluble means that the volume of solvent (required for dissolution) in ml per gram of solute is of from 30 to 100)	Sparingly (The statement sparingly soluble means that the volume of solvent (required for dissolution) in ml per gram of solute is of from 30 to 100)	higher than that of the monohydrate				
19	25	1000	333	1000	Yellowish	10Y/9/3.5 NN			C[C@H]1c2cccc(O)c2C(=O)C2=C(O)[C@]3(O)C(=O)C(C(N)=O)=C(O)[C@@H](N(C)C)[C@@H]3[C@@H](O)[C@@H]21 [Doxycycline Monohydrate, reference compound]	Soluble (The statement soluble means that the volume of solvent (required for dissolution) in ml per gram of solute is of from 1 to 30)	Soluble (The statement soluble means that the volume of solvent (required for dissolution) in ml per gram of solute is of from 1 to 30)	Slightly (The statement slightly soluble means that the volume of solvent (required for dissolution) in ml per gram of solute is of from 100 to 1000)	Slightly (The statement slightly soluble means that the volume of solvent (required for dissolution) in ml per gram of solute is of from 100 to 1000)	Slightly (The statement slightly soluble means that the volume of solvent (required for dissolution) in ml per gram of solute is of from 100 to 1000)					
					Yellowish	7.5Y/9/10 NN		6.8	CN(C)c1ccc(O)c2c1C[C@H]1C[C@H]3[C@H](N(C)C)C(O)=C(C(N)=O)C(=O)[C@@]3(O)C(O)=C1C2=O [Minocycline Base, 7-dimethylamino-6-demethyl-6-deoxytetracycline, reference compound]										
									C[C@H]1c2cccc(O)c2C(=O)C2=C(O)[C@]3(O)C(=O)C(C(N)=O)=C(O)[C@@H](N(C)C)[C@@H]3[C@@H](O)[C@@H]21 [doxycycline hydrochloride]										about 3
					Yellowish	5Y/9/2 NN		3.4	Demeclocycline Maleate	Soluble (The statement soluble means that the volume of solvent (required for dissolution) in ml per gram of solute is of from 1 to 30)	Soluble (The statement soluble means that the volume of solvent (required for dissolution) in ml per gram of solute is of from 1 to 30)	Sparingly (The statement sparingly soluble means that the volume of solvent (required for dissolution) in ml per gram of solute is of from 30 to 100)	Sparingly (The statement sparingly soluble means that the volume of solvent (required for dissolution) in ml per gram of solute is of from 30 to 100)	Sparingly (The statement sparingly soluble means that the volume of solvent (required for dissolution) in ml per gram of solute is of from 30 to 100)					
					Yellowish	5Y/9/2.5 NN		3.3	Demeclocycline Oxalate										
					Yellowish	10/Y/9/3.5 NN		3.0	Minocycline Oxalate										

Molecule	Solubility pH = 1.0 (volume of solvent required for dissolution per gram of solute) [1] [ml/g]	Solubility pH = 1.2 (volume of solvent required for dissolution per gram of solute) [1] [ml/g]	Solubility pH = 4.5 (volume of solvent required for dissolution per gram of solute) [1] [ml/g]	Solubility pH = 6.8 (volume of solvent required for dissolution per gram of solute) [1] [ml/g]	Solubility pH = 7.5 (volume of solvent required for dissolution per gram of solute) [1] [ml/g]	Color Description [2]	Munsell Classification [2]	Munsell Classification ([2]; listed as doxycycline hyclate)	pH [3]	Solubility pH = 1.0 (class) [1]	Solubility pH = 1.2 (class) [1]	Solubility pH = 4.5 (class) [1]	Solubility pH = 6.8 (class) [1]	Solubility pH = 7.5 (class) [1]	Solubility compared with doxycycline monohydrate ([1]; pH 4.5, pH 6.8 and pH 7.5)	Solubility compared with the hydrochloride / hyclate ([1]; pH 1.0, 1.2, 4.5, 6.8 and 7.5 (all pH values tested))	Solubility compared with doxycycline monohydrate ([1]; pH 1.0 and pH 1.2)	pH compared with the marketed form ([3]; comparison of the values of the pH table)	pH [4]
C[C@H]1c2cccc(O)c2C(O)=C2C(=O)[C@]3(O)C(O)=C(C(N)=O)C(=O)[C@@H](N(C)C)[C@@H]3[C@@H](O)[C@@H]21.O=C(O)C(=O)O [Doxycycline Oxalate]	500	1900	500	125	143	Yellowish	5Y/9/4 NN		3.2	Slightly (The statement slightly soluble means that the volume of solvent (required for dissolution) in ml per gram of solute is of from 100 to 1000)	Very Slightly (The statement very slightly soluble means that the volume of solvent (required for dissolution) in ml per gram of solute is from 1000 to 10 000)	Slightly (The statement slightly soluble means that the volume of solvent (required for dissolution) in ml per gram of solute is of from 100 to 1000)	Slightly (The statement slightly soluble means that the volume of solvent (required for dissolution) in ml per gram of solute is of from 100 to 1000)	Slightly (The statement slightly soluble means that the volume of solvent (required for dissolution) in ml per gram of solute is of from 100 to 1000)	similar	lower than that of the hyclate	lower than that of the monohydrate		
CN(C)C1C(O)=C(C(N)=O)C(=O)C2(O)C(O)=C3C(=O)c4c(O)cccc4C(C)(O)C3CC12.O=C(O)C(=O)O (stereo not shown) [Tetracycline Oxalate]						Yellowish	10Y/9/8 NN		3.2									less acidic than the pH of tetracycline	
CN(C)[C@@H]1C(O)=C(C(N)=O)C(=O)[C@@]2(O)C(O)=C3C(=O)c4c(O)cccc4[C@@](C)(O)[C@H]3C[C@@H]12 [Tetracycline]						Yellowish	5Y/9/4 NN												
